# In patent publication US7135476B2, “Spiro tetrahydroquinazolines and dihydrocyclopentapyrimidines as CRF antagonists” (Roche Palo Alto LLC, priority 2003, dated 2006):
# Biological target: T1, CRF1 Receptor (Homo sapiens, UniProt P34998)
# T1 construct: endogenous in cells; host or cells: IMR-32 human neuroblastoma cells (membrane preparation)
# T1 sequence (P34998 24-415): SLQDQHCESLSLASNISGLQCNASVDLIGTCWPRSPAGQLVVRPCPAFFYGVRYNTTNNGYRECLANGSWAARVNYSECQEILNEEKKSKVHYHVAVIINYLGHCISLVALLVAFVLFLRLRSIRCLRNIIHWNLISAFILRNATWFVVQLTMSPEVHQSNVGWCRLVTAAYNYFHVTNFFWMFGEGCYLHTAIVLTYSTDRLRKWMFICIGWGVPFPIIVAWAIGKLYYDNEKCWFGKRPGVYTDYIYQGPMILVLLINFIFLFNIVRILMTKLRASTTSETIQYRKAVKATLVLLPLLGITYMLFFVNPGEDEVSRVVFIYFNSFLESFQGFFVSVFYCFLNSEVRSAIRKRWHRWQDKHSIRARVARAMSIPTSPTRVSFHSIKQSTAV
# Experiment: CRF1 Receptor Binding Assay
# Conditions: competition with [125I]Tyr0-ovine CRF, human IMR-32 neuroblastoma cell membranes; pKi derived from pIC50
# Procedure: CRF1 Receptor Binding Assay
# Human IMR-32 neuroblastoma cells are grown to 80% confluence in MEM medium containing 10% heat-inactivated FBS, 1 mM Sodium Pyruvate, and 0.1 mM nonessential amino acids. Cell membranes are prepared according the method of Dieterich and DeSouza (1996). The cells (˜5E+9) are resuspended in 10 volumes of wash buffer (5 mM Tris HCl, 10 mM MgCl2, 2 mM EGTA, pH 7.4 at RT), homogenized with a Polytron, and then centrifuged at 45,000 G for 20 min at 4° C. The membrane pellets are washed twice with wash buffer (45,000 G for 20 min at 4° C.) and then resuspended (50 mM Tris HCl, 10 mM MgCl2, 2 mM EGTA, pH 7.4 at RT). Protein concentration is determined using Pierce reagents and BSA as standard. […]
# The competition binding assay is performed in a final volume of 250 μl, which contains assay buffer (50 mM Tris-HCl, 10 mM MgCl2, 2 mM EGTA, 0.2% BSA, 0.1 mM bacitracin and 100 kIU/mL aprotinin pH 7.2 at R.T.), 0.05 nM [^125I]Tyr^0-ovine CRF (Du Pont New England Nuclear), 50 μg of membrane protein, and test compound at various concentrations. Non-specific binding is determined with 1 uM hCRF. […] Unbound radioactivity is removed by four rapid washes (0.8 ml/well) with wash buffer. The radioactivity is quantified using a Packard TopCount. Data are analyzed using non-linear iterative curve fitting to obtain IC50 and Hill slope values. […]
smiles,measurement,value
"CCCN(CC1CC1)c1nc(C)nc2c1CCCC21CCc2ccccc21 (stereo not shown) [Compound 1, (2,3,5′,6′,-Tetrahydro)-2′-methyl-4′-(N-propyl-N-cyclo-propylmethyl-amino)spiro[(1H)indene-1,8′-(7H)quina-zoline]]",Ki,123 nM
